One data set has as its system iPSC-derived microglia. In words: Pharmacological CSF1R-inhibition (PLX3397) cell viability assay in human iPSC-derived microglia. It counts as cell-based. As to conditions: 150 nM or 200 nM PLX3397 in 0.1% DMSO, 8 hr, colorimetric viability kit. Here is the method:
Methods: The iPSC-derived microglia as described in Example 4 either were treated with excipient (negative control) or were transduced with a rAAV vector having a TREM2 transgene (SEQ ID NO:26) encapsidated in AAV6TM capsid protein (SEQ ID NO:19) at a MOI of 2.0×10^3 vg/cell. 7 days post-transduction, 150 nM or 200 nM of PLX3397 in 0.1% DMSO was added to the cell culture media and incubated for additional 8 hr at 37° C. and 5% CO2. After this period of incubation, cells were assayed for viability using a colorimetric kit (Abcam).

Data set [1] concerns CSF1R-inhibition mouse model (WT C57BL/6 mice fed PLX-chow). In words: In vivo efficacy of TREM2 rAAV in CSF1R-inhibition (PLX) mouse model for CRL. Here is the method:
The rAAV was injected at a dose of either 1.8×10^10 vg (4.49×10^10 vg/g brain) or 1.8×10^11 vg (4.49×10^11 vg/g brain), respectively. Vector particles per g brain weight was based on an adult mouse brain weight of 400 mg. At 8 weeks of age (i.e., 4 weeks post-ICV injection), 1 excipient-treated group and both dose-treated groups were fed with PLX-containing mouse chow. Mice were fed with PLX-chow at 185 mg/kg for 1 week and then sacrificed at 9 weeks of age (i.e., 5 weeks post-ICV injection).
Biodistribution was determined by measuring vg presence using ddPCR (with >50 vg/1 μg gDNA defined as positive).

Take `FC(F)(F)c1ccc(CNc2ccc(Cc3c[nH]c4ncc(Cl)cc34)cn2)cn1` [PLX]: the “cell death (cytotoxicity of PLX treatment)” value in the data set with iPSC-derived microglia was “about 80%”. In data set [1] (PLX-chow 185 mg/kg for 1 week, either dose of rAAV+PLX compared to excipient+PLX), the “number of IBA1+ microglia in brain” value was “almost complete depletion of microglia throughout the brain”. In addition, in data set [1] (PLX-chow 185 mg/kg for 1 week, rAAV+PLX), the “expression of homeostatic microglia genes (P2RY12, HEXB)” value is “decreased expression of genes associated with homeostatic microglia”. In addition, the “CSF1R expression (mRNA; protein)” value in data set [1] (PLX-chow 185 mg/kg for 1 week, rAAV+PLX (both doses) compared to excipient+PLX) was “apparent at both the mRNA and protein level”. For the same compound, in data set [1] (excipient+PLX, rAAV+PLX compared to excipient-only), the “expression of disease associated microglia (DAM) genes (CCL12, CD48, CD68, LYZ1, PTPRC)” value is listed as “significant decrease in expression”.

Source of the values: patent US20240226332A9, “GENE THERAPY FOR TREM2-ASSOCIATED DISEASES AND DISORDERS” (Eli Lilly and Company, priority 2022, published 2024).
